The text below walks through data of PubChem BioAssay (NCI).

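Growth conditions: 96-well plates. Treatment: test compound, 48 hours, 5 concentrations. Analysis: linear interpolation between bracketing concentrations; unreached endpoints set to highest concentration. GI50 is the concentration that inhibits growth by half. TGI: concentration producing complete growth inhibition.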

Test systems include K-562 leukemia; LOX IMVI melanoma; MDA-MB-231 breast; MDA-MB-435; OVCAR-5 ovarian; RPMI-8226 leukemia; SK-OV-3 ovarian; SNB-19 CNS; UACC-257 melanoma; EKVX NSCLC.
Assay in all cases: NCI anticancer screen, dose series, 48 h

In the case of `CC1CCC2(CC1)N=C1CCC(C)CC1C1(CCC(C)CC1)N2` (stereo not drawn), the TGI with K-562 leukemia, in the experiment with LOX IMVI melanoma, in the experiment on MDA-MB-231 breast, in the experiment with MDA-MB-435, in the experiment on OVCAR-5 ovarian and with RPMI-8226 leukemia was above 100 µM in each case. Besides, the TGI in the experiment with SK-OV-3 ovarian, in the experiment on SNB-19 CNS and in the experiment with UACC-257 melanoma was above 100 µM in each case.
As for `C/C=C\C(CC(=O)NCCC1CN(C(=O)c2ccccc2)c2ccccc21)CC(=O)OC` (stereo not drawn), the TGI with EKVX NSCLC, in the experiment on K-562 leukemia, in the experiment with MDA-MB-231 breast, with MDA-MB-435, with OVCAR-5 ovarian and in the experiment on RPMI-8226 leukemia was above 100 µM in each case. Further, the TGI with SK-OV-3 ovarian, in the experiment with SNB-19 CNS and in the experiment on UACC-257 melanoma was above 100 µM each time.
With `CC(C)CCC[C@@H](C)[C@H]1CCC2C3=CCC4C(=O)C=CC(=O)C4C3CC[C@@]21C` (stereo partly drawn), the GI50 in the experiment with EKVX NSCLC is 0.279 µM; with K-562 leukemia, 0.139 µM; in the experiment on LOX IMVI melanoma it was 0.227 µM; with MDA-MB-231 breast it was 0.331 µM; in the experiment with MDA-MB-435 it was 0.254 µM; in the experiment with OVCAR-5 ovarian, 0.212 µM. The results for the GI50 with RPMI-8226 leukemia, with SNB-19 CNS and in the experiment with UACC-257 melanoma were 0.11 µM, 0.543 µM and 0.372 µM, respectively. Moreover, the TGI is above 100 µM in the experiment on K-562 leukemia; 1.17 µM in the experiment with LOX IMVI melanoma; 1.32 µM in the experiment on MDA-MB-231 breast; 1.15 µM in the experiment on MDA-MB-435; above 100 µM in the experiment on OVCAR-5 ovarian; above 100 µM in the experiment with SNB-19 CNS.
Turning to `O=C(O)/C=C/C(=O)O`, the TGI in the experiment on EKVX NSCLC, in the experiment with K-562 leukemia, in the experiment with LOX IMVI melanoma, in the experiment on MDA-MB-231 breast, in the experiment with MDA-MB-435 and in the experiment with OVCAR-5 ovarian was above 100 µM each time. Besides, the TGI in the experiment with RPMI-8226 leukemia, with SNB-19 CNS and in the experiment with UACC-257 melanoma was above 100 µM throughout.
`COC(=O)n1c(CBr)c(Br)c2ccccc21`: the TGI in the experiment on K-562 leukemia was above 100 µM; in the experiment with OVCAR-5 ovarian it was 79.2 µM; with RPMI-8226 leukemia, 58.7 µM; with SNB-19 CNS it was above 100 µM; in the experiment with UACC-257 melanoma, above 100 µM.
Turning to `Cn1ccc(C(=O)NCCCCCNC(=O)c2ccn(C)c(=O)c2O)c(O)c1=O`, the TGI in the experiment with LOX IMVI melanoma, in the experiment on MDA-MB-231 breast, in the experiment on MDA-MB-435, with SNB-19 CNS and in the experiment on UACC-257 melanoma was above 100 µM in each case.
As for `O=C(/C=C/c1ccccc1O)/C=C/c1ccccc1O`, the TGI in the experiment with K-562 leukemia was above 100 µM; with MDA-MB-231 breast it was 5.29 µM; with MDA-MB-435, 4.64 µM; in the experiment with OVCAR-5 ovarian, 3.14 µM; in the experiment on RPMI-8226 leukemia, 0.76 µM; in the experiment on SK-OV-3 ovarian it was 4.34 µM. In addition, the TGI in the experiment with SNB-19 CNS was determined as 4.86 µM; in the experiment on UACC-257 melanoma, 21.8 µM.
Consider `Cc1cccc2c1C/C(=C\c1cccc(C)c1C(=O)O)C2=O`, for which the TGI with EKVX NSCLC, with K-562 leukemia, in the experiment with LOX IMVI melanoma, with MDA-MB-435, in the experiment with OVCAR-5 ovarian and in the experiment with RPMI-8226 leukemia was above 100 µM in each case. Also, the TGI in the experiment with SNB-19 CNS and in the experiment on UACC-257 melanoma was above 100 µM in each case.
Regarding `O=C(NN1C(=O)C=CC1=O)c1ccccc1Nc1ccccc1C(=O)NN1C(=O)C=CC1=O`, the TGI with EKVX NSCLC, in the experiment with K-562 leukemia, with LOX IMVI melanoma, in the experiment on MDA-MB-231 breast, in the experiment on MDA-MB-435 and in the experiment on OVCAR-5 ovarian was above 100 µM each time. For the same compound, the TGI with RPMI-8226 leukemia, in the experiment on SNB-19 CNS and with UACC-257 melanoma was above 100 µM each time.
As for `COc1ccc2c(c1)CC[C@@H]1[C@@H]2CC[C@]2(C)C(=O)/C(=C/c3cc(OC)c(OC)c(OC)c3)C[C@@H]12`, the TGI with EKVX NSCLC was above 100 µM; in the experiment on MDA-MB-231 breast, 42 µM; in the experiment with MDA-MB-435, above 100 µM; in the experiment on OVCAR-5 ovarian, 62.4 µM; with RPMI-8226 leukemia it was above 100 µM; with SK-OV-3 ovarian it was above 100 µM. In the experiment with SNB-19 CNS, this compound registered a TGI above 100 µM.
On to `C#CCOC(=O)C(N)CCCN=C(N)N` (stereo not drawn), for which the TGI in the experiment with EKVX NSCLC, in the experiment on LOX IMVI melanoma, in the experiment with MDA-MB-231 breast, in the experiment with MDA-MB-435, in the experiment on OVCAR-5 ovarian and in the experiment with RPMI-8226 leukemia was above 100 µM in each case. The TGI in the experiment on SNB-19 CNS and in the experiment with UACC-257 melanoma was above 100 µM throughout.
Regarding `c1ccc(C2=C(c3ccccc3)P(c3ccccc3)C2)cc1` (stereo not drawn), the TGI in the experiment with MDA-MB-231 breast, with MDA-MB-435, in the experiment on OVCAR-5 ovarian, in the experiment with SK-OV-3 ovarian and in the experiment on UACC-257 melanoma was above 100 µM throughout.
On to `CC(C)C1=CC23CCC4C(C)(C(=O)O)CCCC4(C)C2CC1C(C(=O)O)C3C(=O)O` (stereo not drawn), for which the TGI in the experiment on EKVX NSCLC, in the experiment with K-562 leukemia, with LOX IMVI melanoma, in the experiment on MDA-MB-231 breast, in the experiment with MDA-MB-435 and with OVCAR-5 ovarian was above 100 µM throughout. Further, the TGI with SNB-19 CNS is above 100 µM.
Consider `N#Cc1c(N2CCN(c3ccc([N+](=O)[O-])cc3)CC2)[n+](=O)c2ccc(Cl)cc2n1[O-]`, for which the TGI in the experiment on EKVX NSCLC was 10.8 µM; with K-562 leukemia, above 100 µM; with LOX IMVI melanoma it was 1.15 µM; in the experiment on MDA-MB-435, 8.07 µM; in the experiment with OVCAR-5 ovarian, 29.1 µM; in the experiment with SK-OV-3 ovarian, above 23.9 µM. Besides, the TGI in the experiment on SNB-19 CNS was above 32.8 µM; with UACC-257 melanoma it was 8.21 µM.
Consider `CCOC12SC(=Nc3ccc(C)cc3)NN1C(=S)N(C)N=C2C` (stereo not drawn), for which the TGI with EKVX NSCLC, in the experiment with K-562 leukemia, in the experiment on LOX IMVI melanoma, in the experiment on OVCAR-5 ovarian, in the experiment on RPMI-8226 leukemia and in the experiment with SNB-19 CNS was above 100 µM each time. The same compound returned a TGI in the experiment with UACC-257 melanoma above 100 µM.
On to `O=C(c1ccccc1)N1C(=S)N(c2ccc([N+](=O)[O-])cc2)C(=Nc2ccccc2)C1=Nc1ccccc1`, for which the TGI in the experiment on EKVX NSCLC, with K-562 leukemia, with MDA-MB-231 breast, with MDA-MB-435, in the experiment with OVCAR-5 ovarian and with RPMI-8226 leukemia was above 100 µM in each case. Further, the TGI with SK-OV-3 ovarian, in the experiment on SNB-19 CNS and in the experiment with UACC-257 melanoma was above 100 µM each time.
